Source: PMC10854695, “Using Flavonoid Substitution Status to Predict Anticancer Effects in Human Melanoma Cancers: An In Vitro Study” (Cancers, 2024)

Legend:
C32 melanoma cells [1] = test: MTT cell viability assay, C32; details: Homo sapiens, read-out: IC50, cytotoxic activity, MTT test;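 note: MTT added for 2 h, cells lysed in DMSO, absorbance read at 570 nm, compound vehicle kept at or below 0.1% DMSO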
A375 melanoma cells [2] = test: MTT cell viability assay, A375; details: Homo sapiens;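 note: Read-out is formazan absorbance at 570 nm after 2 h with MTT, with compounds in at most 0.1% v/v DMSO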
Method: (§1) The MTT colorimetric assay was performed as a preliminary evaluation of the cytotoxicity of the selected flavonoids according to the method described and validated by Strawa et al. [21]. Briefly, melanoma cells and fibroblasts were seeded in 96-well microplates at a density of 1 × 10^4 cells per well. Fibroblasts were used as a control cell line in order to assess the selectivity of the compounds. […] Subsequently, the cells were washed with PBS, incubated with MTT solution for 2 h, and lysed with dimethyl sulfoxide (DMSO) supplemented with 1% (v/v) Sorensen’s glycine buffer. The absorbance was measured using a microplate reader (EPOCH 2, BioTek, Winooski, VT, USA) at a wavelength of 570 nm. The compounds were used at a final DMSO concentration of no more than 0.1% (v/v) in each well. The results were generated from at least three independent experiments. […] The IC50 values were calculated with GraphPad Prism 9 software (GraphPad Software, San Diego, CA, USA).

C32 melanoma cells [3] = test: Neutral red uptake (NRU) assay, C32; details: Homo sapiens
Method: The NRU (neutral red uptake) was conducted as previously described by Szoka and co-workers, with some modifications [22]. Briefly, melanoma cells and fibroblasts were seeded in microplates at the density of 1 × 10^4 cells per well and allowed to adhere for 24 h. […] After treatment, the culture medium was replaced with a neutral red solution (40 µg/mL). An additional 2 h of incubation was performed. The neutral red solution was then removed and the neutral red accumulated in the cells was dissolved in 50% EtOH with 1% of the glacial acetic acid. The absorbance was estimated at 540 nm and IC50 values were calculated using GraphPad Prism software (GraphPad Software, San Diego, CA, USA).

A375 melanoma cells [4] = test: Neutral red uptake (NRU) assay, A375; details: Homo sapiens, read-out: IC50, cytotoxic activity, NRU assay
[5] = MTT cell viability assay, normal cells; details: human, human skin fibroblasts (CCD25Sk);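 note: fibroblasts served as non-cancer comparison line for selectivity versus melanoma cells, MTT reduction read as absorbance at 570 nm after 2 h dye exposure, compounds in ≤0.1% DMSO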
Method: as §1

[6] = Neutral red uptake (NRU) assay, normal cells; details: human, human skin fibroblasts (CCD25Sk)
[7] = A-375, 24 h, read-out: IC50, cytotoxic activity, MTT test, A375, 24 h
[8] = A-375, 48 h, read-out: IC50, cytotoxic activity, MTT test, A375, 48 h
[9] = A-375, 72 h, read-out: IC50, cytotoxic activity, MTT test, A375, 72 h
[10] = C32, 24 h, read-out: IC50, cytotoxic activity, NRU assay, C32, 24 h
[11] = C32, 48 h, read-out: IC50, cytotoxic activity, NRU assay, C32, 48 h
[12] = C32, 72 h, read-out: IC50, cytotoxic activity, NRU assay, C32, 72 h

Structure (SMILES) | IC50 (C32 melanoma cells [1]; C32, 24 h) | IC50 (C32 melanoma cells [1]; C32, 48 h) | IC50 (C32 melanoma cells [1]; C32, 72 h) | IC50 (A375 melanoma cells [2]; [7]) | IC50 (A375 melanoma cells [2]; [8]) | IC50 (A375 melanoma cells [2]; [9]) | IC50 (C32 melanoma cells [3]; [10]) | IC50 (C32 melanoma cells [3]; [11]) | IC50 (C32 melanoma cells [3]; [12]) | IC50 (A375 melanoma cells [4]; A-375, 24 h) | IC50 (A375 melanoma cells [4]; A-375, 48 h) | IC50 (A375 melanoma cells [4]; A-375, 72 h) | IC50 at 24 h [5] | IC50 at 48 h [5] | IC50 at 72 h [5] | IC50 at 24 h [6] | IC50 at 48 h [6] | IC50 at 72 h [6]
O=c1cc(-c2ccc(O)cc2)oc2c([C@@H]3O[C@H](CO)[C@@H](O)[C@H](O)[C@H]3O)c(O)cc(O)c12 [Compound 2, apigenin 8-C-glucoside] | > 200 µM | > 200 µM | > 200 µM | > 200 µM | > 200 µM | > 200 µM | > 200 µM | > 200 µM | > 200 µM | > 200 µM | > 200 µM | > 200 µM | > 200 µM | > 200 µM | > 200 µM | > 200 µM | > 200 µM | > 200 µM
O=c1cc(-c2ccc(O)cc2)oc2cc(OC3OC(CO)C(O)C(O)C3O)cc(O)c12 (stereo not drawn) [Compound 3, apigenin 7-O-glucoside] | > 200 µM | > 200 µM | > 200 µM | > 200 µM | > 200 µM | > 200 µM | > 200 µM | > 200 µM | > 200 µM | > 200 µM | > 200 µM | > 200 µM | > 200 µM | > 200 µM | > 200 µM | > 200 µM | > 200 µM | > 200 µM
O=C(O)C1OC(Oc2cc(O)c3c(=O)cc(-c4ccc(O)cc4)oc3c2)C(O)C(O)C1O (stereo not drawn) [Compound 4, apigenin 7-O-glucuronide] | > 200 µM | > 200 µM | > 200 µM | > 200 µM | > 200 µM | > 200 µM | > 200 µM | > 200 µM | > 200 µM | > 200 µM | > 200 µM | > 200 µM | > 200 µM | > 200 µM | > 200 µM | > 200 µM | > 200 µM | > 200 µM
CC1OC(OCC2OC(Oc3cc(O)c4c(=O)cc(-c5ccc(O)cc5)oc4c3)C(O)C(O)C2O)C(O)C(O)C1O (stereo not drawn) [Compound 5, apigenin 7-O-rutinoside] | > 200 µM | > 200 µM | > 200 µM | > 200 µM | > 200 µM | > 200 µM | > 200 µM | > 200 µM | > 200 µM | > 200 µM | > 200 µM | > 200 µM | > 200 µM | > 200 µM | > 200 µM | > 200 µM | > 200 µM | > 200 µM
O=c1c(O)c(-c2ccc(O)cc2)oc2cc(O)cc(O)c12 [Compound 18, kaempferol] | 100 to 200 µM | 100 to 200 µM | 58.4 ± 3.5 µM | 100 to 200 µM | 100 to 200 µM | 75.8 ± 5.8 µM | > 200 µM | 62.8 ± 3.5 µM | 34.4 ± 2.9 µM | 100 to 200 µM | 57.4 ± 4.6 µM | 47.7 ± 3.9 µM | 100 to 200 µM | 100 to 200 µM | 55.8 ± 4.5 µM | > 200 µM | 69.8 ± 5.8 µM | 51.1 ± 3.2 µM
COc1c(O)cc(O)c2c(=O)c(O)c(-c3ccc(O)cc3)oc12 [Compound 19, 8-methoxykaempferol] | 100 to 200 µM | 100 to 200 µM | 100 to 200 µM | 100 to 200 µM | 100 to 200 µM | 61.8 ± 3.1 µM | 100 to 200 µM | 88.8 ± 7 µM | 71.9 ± 7 µM | 100 to 200 µM | 100 to 200 µM | 100 to 200 µM | > 200 µM | > 200 µM | 100 to 200 µM | > 200 µM | > 200 µM | 64.8 ± 5 µM
